# Experimental data taken from patent US20260276624A1, “PROPHYLACTIC OR THERAPEUTIC AGAINST EXACERBATION OR RECURRENCE OF CANCER, AND SCREENING METHOD THEREFOR” (KEIO UNIVERSITY, priority 2022, published 2026).
# How the values were obtained:
# [1] = tested on: human colorectal cancer organoids (CCO32 strain); experiment: Camptothecin treatment with or without FAK inhibitor, proportion of LGR5-positive p27-positive cells; type: cell-based; details: co-treatment with camptothecin; FAK inhibitor 10 nM, 24 hours / 10 μm as printed; camptothecin 5 days
# Description: The scale bar is 100 μm. As a FAK inhibitor, PF573228 (CAS No. 869288-64-2) was used (10 μm). In FIG. 13, “FAKi” indicates a FAK inhibitor. FIG. 14 is a graph showing results of measuring the proportion of the LGR5-positive p27-positive cells when the human colorectal cancer organoids are treated or not treated with camptothecin for 5 days in the presence or absence of a FAK inhibitor. In FIG. 14, “N.S.” indicates no significant difference.
# COL17A1, pFAK = experiment: Capillary-based immunoassay for COL17A1, pFAK and total FAK in camptothecin-treated organoids; type: cell-based, human; details: camptothecin 50 nM; CCO7 and CCO32 strains
# [2] = tested on: COL17A1 KO human colorectal cancer organoids; experiment: Chemotherapy sensitivity of COL17A1 KO organoids; type: cell-based; details: compared to COL17A1 WT and hetero KO organoids
# Text: The chemotherapy sensitivity of COL17A1 KO human colorectal cancer organoids was studied.
# YAP signaling = experiment: Nuclear translocation of YAP in camptothecin-treated organoids (confocal); type: cell-based, human; details: CCO7 and CCO32 strains, camptothecin treatment
# Text: The scale bar is 100 μm. The right side of FIG. 10 is a graph showing results of measuring the proportion of cells containing YAP that has undergone nuclear translocation based on the photographs on the left side of FIG. 10.
# [3] = tested on: human colorectal cancer organoids; experiment: Colony formation of sorted cells after camptothecin treatment of organoids; type: cell-based; details: 50 nM; 1,000 sorted cells cultured; day 13 after sorting
# Description: The human colorectal cancer organoids were treated with camptothecin (CPT) which is a topoisomerase inhibitor (50 nM). Subsequently, the LGR5-positive p27-positive cells, the LGR5-positive p27-negative cells, LGR5-negative p27-positive cells, and LGR5-negative p27-negative cells were sorted and collected with a cell sorter, and 1,000 cells of each type were cultured.
# The numerical values in FIG. 4 show the number of colonies (average value±standard error). The scale bar is 1 mm.
# [4] = tested on: Doxycycline-inducible YAP/TAZ-knockdown human colorectal cancer organoids; experiment: Experimental Example 13: YAP/TAZ-knockdown organoid xenograft, doxycycline after irinotecan; type: in vivo, NOG mice; details: irinotecan once a week for three times, no doxycycline
# Description: How the inhibition of YAP signaling affects tumor regrowth after chemotherapy was studied. The upper row in FIG. 17 is a schematic view showing a schedule of this experiment. Doxycycline-inducible YAP/TAZ-knockdown human colorectal cancer organoids were produced and xenotransplanted into the subcutis of immunodeficient NOG mice. Thereafter, irinotecan was administered once a week for three times, followed by administering doxycycline over a long period of time to inhibit YAP signaling. Thereafter, administration of doxycycline was discontinued. The lower row in FIG. 17 is a group showing change in tumor size in mice of each group over time. In the lower row in FIG. 17, “Irinotecan” indicates a result of the group into which only irinotecan was administered, and “Irinotecan +Dox” indicates a result of the group into which irinotecan and doxycycline were administered.
# [5] = tested on: human colorectal cancer organoids xenotransplanted in mice; experiment: In vivo imaging of survival of LGR5-positive cells after irinotecan
# Description: Whether or not the LGR5-positive p27-positive cells resistant to the chemotherapeutic agent contribute to relapse or recurrence of tumors after chemotherapy was studied in vivo. Specifically, irinotecan was administered to mice xenotransplanted with human colorectal cancer organoids, followed by in vivo imaging and genetic lineage-tracing of the LGR5-positive p27-positive cells and the LGR5-positive p27-negative cells over time.
# FIG. 5 is a graph showing results obtained by measuring the survival rate of LGR5-positive p27-positive cells and LGR5-positive p27-negative cells after administration of irinotecan.
# [6] = tested on: Doxycycline-inducible YAP/TAZ-knockdown human colorectal cancer organoids; experiment: Experimental Example 12: doxycycline-inducible YAP/TAZ-knockdown organoid xenograft, irinotecan; type: in vivo, NOG mice; details: irinotecan only
# Description: The upper row in FIG. 15 is a schematic view showing a schedule of this experiment. Doxycycline-inducible YAP/TAZ-knockdown human colorectal cancer organoids were produced and xenotransplanted into the subcutis of immunodeficient NOG mice. Thereafter, irinotecan was administered. […] The scale bar is 100 μm. In the lower row in FIG. 15, “Control” indicates a result of a group into which neither irinotecan nor doxycycline has been administered, “Dox” indicates a result of a group into which only doxycycline was administered, “Irinotecan” indicates a result of a group into which only irinotecan was administered, and “Irinotecan +Dox” indicates a result of a group into which irinotecan and doxycycline were administered. FIG. 16 is a group showing change in tumor size in mice of each group over time. As a result, in FIG. 16, “Control,” “Dox,” “Irinotecan,” and “Irinotecan +Dox” show the same meaning as in the lower row in FIG. 15. In addition, “*” indicates a significant difference at p<0.05.
# [7] = tested on: COL17A1 KO human colorectal cancer organoids xenotransplanted in mice; experiment: Tumor size after irinotecan in COL17A1 KO xenografts; type: in vivo; details: COL17A1 KO vs COL17A1 WT xenografts
# Description: Subsequently, irinotecan was administered to mice xenotransplanted with COL17A1 KO human colorectal cancer organoids, and the tumor size was measured over time. The upper row in FIG. 8 is a schematic view showing a schedule of this experiment. The lower row in FIG. 8 is a graph showing change in tumor size over time. […] In addition, indicates a significant difference at p<0.05.
# [8] = tested on: Human colorectal cancer organoids (CCO32 strain); experiment: Experimental Example 14: organoid xenograft, TEAD inhibitor after irinotecan; type: in vivo, NOG mice
# Description: The upper row in FIG. 18 is a schematic view showing a schedule of this experiment. Human colorectal cancer organoids (CCO32 strain) were xenotransplanted into the subcutis of immunodeficient NOG mice. Thereafter, irinotecan was administered once a week for three times, followed by administering a TEAD inhibitor over a long period of time to inhibit YAP signaling. Thereafter, administration of the TEAD inhibitor was discontinued. As a TEAD inhibitor, MYF-01-37 (CAS No. 2416417-65-5) was used.
# The lower row in FIG. 18 is a group showing change in tumor size in mice of each group over time. In the lower row in FIG. 18, “Vehicle” indicates a result of a group into which only a solvent was administered, “TEADi” indicates a result of a group into which only a TEAD inhibitor was administered, “IRI” indicates a result of a group into which only irinotecan was administered, and “IRI+TEADi” indicates a result of a group into which irinotecan and a TEAD inhibitor were administered.
# [9] = tested on: COL17A1 KO human colorectal cancer organoids; experiment: YAP signaling inhibitor on COL17A1 KO organoids, proportion of LGR5-positive p27-positive cells; type: cell-based; details: 20 μM, 2 days
# Description: A YAP signaling inhibitor was allowed to act on COL17A1 KO organoids to study an effect on dormancy of cancer stem cells. As a YAP signaling inhibitor, MYF-01-37 (CAS No. 2416417-65-5), a low-molecular-weight TEAD inhibitor (TEADi) that disrupts YAP/TAZ-TEAD protein-protein interactions, was used (20 μM, 2 days). […] The scale bar is 100 μm. The right side of FIG. 11 is a graph showing results of measuring the proportion of LGR5-positive p27-positive cells based on the photographs on the left side of FIG. 11.
# [10] = irinotecan only, no TEAD inhibitor
smiles,measurement,setting,value
CS(=O)(=O)c1cccc(CNc2nc(Nc3ccc4c(c3)CCC(=O)N4)ncc2C(F)(F)F)c1 [PF573228],cell cycle reentry of LGR5-positive p27-positive cells after camptothecin exposure,[1],inhibited cell cycle reentry
CC[C@@]1(O)C(=O)OCc2c1cc1n(c2=O)Cc2cc3ccccc3nc2-1 [camptothecin],expression of COL17A1,"COL17A1, pFAK",expression of COL17A1 was deleted
same,phosphorylation of FAK,"COL17A1, pFAK",phosphorylation of FAK occurred
same,sensitivity of COL17A1 KO organoids to camptothecin,[2],more sensitive
same,YAP signaling (nuclear translocation of YAP) in LGR5-positive p27-positive cells,YAP signaling,activates YAP signaling
same,colony formation of LGR5-positive p27-negative cells after camptothecin treatment,[3],showed no colony formation
same,colony formation of LGR5-positive p27-positive cells after camptothecin treatment,[3],showed colony formation
CCc1c2c(nc3ccc(OC(=O)N4CCC(N5CCCCC5)CC4)cc13)-c1cc3c(c(=O)n1C2)COC(=O)[C@]3(O)CC [irinotecan],therapeutic effect (tumor size over time),[4],transient therapeutic effect
same,time of cancer regrowth,[4],~40 days
same,survival of LGR5-positive p27-negative cells after administration of irinotecan,[5],disappeared during an observation period
same,survival of LGR5-positive p27-positive cells after administration of irinotecan,[5],tolerated chemotherapy and remained
same,therapeutic effect (tumor size over time),[6],transient
same,nuclear translocation of YAP in graft,"[6]; three days from administration, immunostaining",resulted in nuclear translocation of YAP in vivo
same,tumor regeneration after administration of irinotecan,[7],more inhibited in COL17A1 KO xenografts than in COL17A1 WT xenografts
same,therapeutic effect (tumor size over time),[8]; [10],transient therapeutic effect
same,time of cancer regrowth,[8]; [10],~40 days
C=CC(=O)N1CCC(C)(Nc2cccc(C(F)(F)F)c2)C1 (stereo not shown) [MYF-01-37],p27-positive cells in COL17A1 KO organoids,[9],led to reappearance of p27-positive cells
same,tumor size,[8]; TEAD inhibitor after irinotecan (once a week for three times),tumor size was reduced to a minimum
same,tumor inhibition effect,[8]; TEAD inhibitor alone,did not show any tumor inhibition effect
